Results as given in PMC11203978, “Discovery of Di(het)arylmethane and Dibenzoxanthene Derivatives as Potential Anticancer Agents” (International Journal of Molecular Sciences, 2024).
Where a name gives a salt, the structure may show the parent alone. Read-outs that look alike come from different tables or passages of the source.

How the values were obtained:
[1] = system: M-HeLa; test: MTT cytotoxicity, M-HeLa; assay type: cell-based, human; conditions: MTT, 48 h incubation, read-out: IC50 (µM) Cancer Cell Lines M-HeLa
Excerpt: (§1) Cells and Materials. For the experiments, we used tumor cell cultures M-HeLa clone 11 (epithelioid carcinoma of the cervix, subline HeLa, clone M-HeLa), HuTu 80, human duodenal adenocarcinoma, Hep-2, human epithelial cells, SH-SY5Y, human neuroblast-like cells, A549, human lung adenocarcinoma, PA-1, human ovarian teratocarcinoma and MCF-7, a human mammary ductal adenocarcinoma from the collection of the Institute of Cytology, Russian Academy of Sciences (St. Petersburg, Russia); human liver cells (Chang liver) were from the collection and the Research Institute of Virology of the Russian Academy of Medical Sciences (Moscow, Russia).
(§2) MTT Assay. The cytotoxic effect on cells was determined using the colorimetric method of cell proliferation—the MTT test. NADP-H-dependent cellular oxidoreductase enzymes can, under certain conditions, reflect the number of viable cells. These enzymes reduce the tetrazolium dye (MTT) 3-(4,5-dimethylthiazol-2-yl)-2,5-diphenyl-tetrazolium bromide to insoluble blue-violet formazan, which crystallizes inside the cell. The amount of formed formazan is proportional to the number of cells with active metabolism. Cells were seeded on a 96-well Nunc plate at a concentration of 5 × 10^3 cells per well in a volume of 100 μL of medium and cultured in a CO2 incubator at 37 °C until a monolayer was formed. After the nutrient medium was removed, 100 µL of the test drug solutions at the given dilutions were added to the wells, which were prepared directly in the nutrient medium with the addition of 5% DMSO to improve solubility. After 48 h of incubation of the cells with the tested compounds, the nutrient medium was removed from the plates and 100 µL of the nutrient medium without serum with MTT at a concentration of 0.5 mg/mL was added and incubated for 4 h at 37 °C. Formazan crystals were added 100 µL of DMSO to each well. Optical density was recorded at 540 nm on an Invitrologic microplate reader (Novosibirsk, Russia). The experiments for all compounds were repeated three times.
(§3) Statistical analysis. The IC50 values were calculated using the MLA–Quest Graph™ IC50 Calculator (AAT Bioquest, Inc., Sunnyvale, CA, USA), 14 February 2022. Statistical analysis was performed with the Mann–Whitney test (p < 0.05). Tabular and graphical data contain averages and standard error.

[2] = system: HuTu 80; test: MTT cytotoxicity, HuTu 80; assay type: cell-based, human; conditions: for IC50: MTT, 48 h incubation, read-out: IC50 (µM) Cancer Cell Lines HuTu 80; for Selectivity index (SI) = IC50(normal)/IC50(tumoral): Chang liver vs HuTu 80
Excerpt: as §1, §2, §3

[3] = system: Chang Liver; test: MTT cytotoxicity, normal Chang liver cells; assay type: cell-based, human; conditions: 48 h incubation, read-out: IC50 (µM) Normal Cell Line Chang Liver
Excerpt: as §1, §2, §3

melting point	Structure (SMILES)	IC50 ([1]; Homo sapiens, M-HeLa)	IC50 ([2]; Homo sapiens, HuTu80, 48 h)	IC50 ([3]; Homo sapiens, Chang liver)	Selectivity index (SI) = IC50(normal)/IC50(tumoral) [2]	IC50 ([2]; Homo sapiens, HuTu80)	IC50 [1]	IC50 [2]	IC50 [3]
178 to 180 °C	O=C(C[n+]1ccccc1)NCC(c1cc2c(cc1O)OCO2)c1cc2c(cc1O)OCO2 [Compound 9a]	> 100 µM	> 100 µM	> 100 µM	–	–	–	–	–
189 to 191 °C	Cc1cc(O)c(C(CCNC(=O)c2nc3ccccc3[nH]2)c2c(O)cc(C)oc2=O)c(=O)o1 [Compound 12c]	–	–	–	–	–	–	–	–
> 250 °C	O=C(C[P+](c1ccccc1)(c1ccccc1)c1ccccc1)NCCC(c1cc2c(cc1O)OCO2)c1cc2c(cc1O)OCO2 [Compound 7b]	65.8 ± 5.8 µM	55.4 ± 4.5 µM	> 100 µM	–	–	–	–	–
224 to 225 °C	O=C(NCC1c2c(ccc3ccc(O)cc23)Oc2ccc3ccc(O)cc3c21)c1nc2ccccc2[nH]1 [Compound 11b]	94.3 ± 7.9 µM	11.5 ± 0.9 µM	53.1 ± 4.3 µM	–	–	–	–	–
216 °C	O=C(NCC1c2c(ccc3ccccc23)Oc2ccc3ccccc3c21)c1nc2ccccc2[nH]1 [Compound 11a]	> 100 µM	> 100 µM	> 100 µM	–	–	–	–	–
199 to 200 °C	C[P+](CC(=O)NCCCC1c2c(ccc3ccccc23)Oc2ccc3ccccc3c21)(c1ccccc1)c1ccccc1 [Compound 6d]	53.2 ± 4.6 µM	18.5 ± 1.5 µM	56.2 ± 4.7 µM	3	–	–	–	–
159 °C	O=C(C[n+]1ccccc1)NCCC(c1cc2c(cc1O)OCO2)c1cc2c(cc1O)OCO2 [Compound 9b]	97.8 ± 8.2 µM	> 100 µM	95.4 ± 8.7 µM	–	–	–	–	–
161 to 162 °C	C[P+](CC(=O)NCCC1c2c(ccc3ccccc23)Oc2ccc3ccccc3c21)(c1ccccc1)c1ccccc1 (as salt: salt) [Compound 6b]	–	–	–	–	–	–	–	–
178 to 181 °C	O=C(C[P+](c1ccccc1)(c1ccccc1)c1ccccc1)NCC(c1cc2c(cc1O)OCO2)c1cc2c(cc1O)OCO2 [Compound 7a]	73.5 ± 6.2 µM	59.7 ± 4.6 µM	> 100 µM	–	–	–	–	–
204 to 205 °C	O=C(C[P+](c1ccccc1)(c1ccccc1)c1ccccc1)NCCCC1c2c(ccc3ccccc23)Oc2ccc3ccccc3c21 [Compound 6c]	26.6 ± 1.9 µM	7.3 ± 0.6 µM	33.4 ± 2.8 µM	4.6	–	–	–	–
216 to 217 °C	O=C(NCC(c1cc2c(cc1O)OCO2)c1cc2c(cc1O)OCO2)c1nc2ccccc2[nH]1 [Compound 12a]	–	–	–	–	–	–	–	–

Continued, compound first:

Structure (SMILES)	melting point	IC50 ([1]; Homo sapiens, M-HeLa)	IC50 ([2]; Homo sapiens, HuTu80, 48 h)	IC50 ([3]; Homo sapiens, Chang liver)	Selectivity index (SI) = IC50(normal)/IC50(tumoral) [2]	IC50 ([2]; Homo sapiens, HuTu80)	IC50 [1]	IC50 [2]	IC50 [3]
CNC(=O)c1cc(Oc2ccc(NC(=O)Nc3ccc(Cl)c(C(F)(F)F)c3)cc2)ccn1 [Sorafenib, reference compound]	–	35.6 ± 2.8 µM	5 ± 0.4 µM	35 ± 2.7 µM	7	–	–	–	–
O=C(NCC(c1c(O)c2ccccc2oc1=O)c1c(O)c2ccccc2oc1=O)c1nc2ccccc2[nH]1	263 to 265 °C	–	–	–	–	–	–	–	–
O=C(CCl)NCCC1c2c(ccc3ccccc23)Oc2ccc3ccccc3c21 [Compound 3c]	147 to 149 °C	49.6 ± 3.9 µM	29.3 ± 2.1 µM	> 100 µM	–	–	–	–	–
COC(CNC(=O)CCl)OC [Compound 2a]	–	> 100 µM	> 100 µM	> 100 µM	–	–	–	–	–
O=C(CCl)NCC(c1cc2c(cc1O)OCO2)c1cc2c(cc1O)OCO2 [Compound 4a]	180 to 182 °C	> 100 µM	> 100 µM	> 100 µM	–	–	–	–	–
O=C(CCl)NCCC1c2c(ccc3ccc(O)cc23)Oc2ccc3ccc(O)cc3c21 [Compound 3d]	137 to 139 °C	38.4 ± 2.7 µM	18.1 ± 1.4 µM	54.8 ± 4.4 µM	3	–	–	–	–
O=C(C[n+]1ccccc1)NCCC1c2c(ccc3ccccc23)Oc2ccc3ccccc3c21.[Cl-] [Compound 8]	156 °C	85.2 ± 7.4 µM	58.4 ± 4.6 µM	100 ± 9.2 µM	–	–	–	–	–
O=C(CCl)NCCCC(c1cc2c(cc1O)OCO2)c1cc2c(cc1O)OCO2 [Compound 4c]	189 to 191 °C	> 100 µM	> 100 µM	> 100 µM	–	–	–	–	–
O=C(CCl)NCCC(c1c(O)c2ccccc2oc1=O)c1c(O)c2ccccc2oc1=O [Compound 5b]	134 °C	65.3 ± 5.4 µM	–	68.1 ± 5.4 µM	–	52.1 ± 4.2 µM	–	–	–
O=C(CCl)NCC1c2c(ccc3ccccc23)Oc2ccc3ccccc3c21 [Compound 3a]	200 to 203 °C	> 100 µM	> 100 µM	> 100 µM	–	–	–	–	–
O=C(CCl)NCCCC1c2c(ccc3ccc(O)cc23)Oc2ccc3ccc(O)cc3c21 [Compound 3f]	180 °C	–	–	–	–	–	–	–	–
O=C(CCl)NCC(c1c(O)c2ccccc2oc1=O)c1c(O)c2ccccc2oc1=O	187 to 188 °C	–	–	–	–	–	–	–	–
C[P+](CC(=O)NCCC1c2c(ccc3ccccc23)Oc2ccc3ccccc3c21)(c1ccccc1)c1ccccc1 [Compound 6b]	–	28.4 ± 1.8 µM	64.3 ± 5.2 µM	> 100 µM	–	–	–	–	–
COC(CNC(=O)c1nc2ccccc2[nH]1)OC [Compound 10a]	–	–	–	–	–	–	> 100 µM	> 100 µM	> 100 µM
O=C(CCl)NCCC(c1cc2c(cc1O)OCO2)c1cc2c(cc1O)OCO2 [Compound 4b]	166 to 168 °C	84.6 ± 7.5 µM	26.2 ± 1.7 µM	> 100 µM	–	–	–	–	–
O=C(CCl)NCC1c2c(ccc3ccc(O)cc23)Oc2ccc3ccc(O)cc3c21 [Compound 3b]	> 250 °C	96.4 ± 8.4 µM	53.9 ± 4.3 µM	78.2 ± 6.8 µM	–	–	–	–	–
O=C(CCl)NCCCC1c2c(ccc3ccccc23)Oc2ccc3ccccc3c21 [Compound 3e]	164 to 165 °C	56.6 ± 4.4 µM	> 100 µM	73.3 ± 6.4 µM	–	–	–	–	–
CCOC(CCNC(=O)CCl)OCC [Compound 2b]	–	> 100 µM	> 100 µM	> 100 µM	–	–	–	–	–
COc1cccc2c1C(=O)c1c(O)c3c(c(O)c1C2=O)C[C@@](O)(C(=O)CO)C[C@@H]3O[C@H]1C[C@H](N)[C@H](O)[C@H](C)O1 [Doxorubicin, reference compound]	–	3 ± 0.2 µM	3 ± 0.2 µM	3 ± 0.1 µM	1	–	–	–	–
